27 compounds from patent US9174952B2, “Substituted 3-thiazoloamino-propionic acid derivatives and their use as pharmaceuticals” (SANOFI, priority 2011, dated 2015) can be followed below.

This assay deals with T1, Recombinant human cathepsin A (Homo sapiens, UniProt P10619).
T1 construct: Recombinant human cathepsin A (residues 29-480, with a C-terminal 10-His tag); 10-His (C); purchased R&D Systems 1049-SE
T1 sequence (P10619 29-326 limits assumed): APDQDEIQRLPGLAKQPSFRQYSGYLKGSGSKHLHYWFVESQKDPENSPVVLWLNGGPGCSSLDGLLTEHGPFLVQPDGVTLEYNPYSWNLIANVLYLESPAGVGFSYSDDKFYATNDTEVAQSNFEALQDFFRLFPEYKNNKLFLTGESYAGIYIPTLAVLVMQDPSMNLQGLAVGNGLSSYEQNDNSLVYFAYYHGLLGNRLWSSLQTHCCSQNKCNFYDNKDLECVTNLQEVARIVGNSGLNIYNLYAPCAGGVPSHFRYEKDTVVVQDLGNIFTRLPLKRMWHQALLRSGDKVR
T1 sequence (P10619 327-480 limits assumed): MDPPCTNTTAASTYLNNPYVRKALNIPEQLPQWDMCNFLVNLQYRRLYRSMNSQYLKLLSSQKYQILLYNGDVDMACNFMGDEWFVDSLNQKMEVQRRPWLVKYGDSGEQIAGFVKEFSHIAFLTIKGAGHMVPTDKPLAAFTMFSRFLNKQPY
As to the kind of experiment: Cathepsin A inhibitory activity. The format is biochemical. The following applies: activated recombinant human cathepsin A 833 ng/ml, Bodipy FL-labeled bradykinin substrate 2 μM, pH 5.5, room temperature. As to the method: a) Cathepsin A Inhibitory Activity
Recombinant human cathepsin A (residues 29-480, with a C-terminal 10-His tag; R&D Systems, #1049-SE) was proteolytically activated with recombinant human cathepsin L (R&D Systems, #952-CY). Briefly, cathepsin A was incubated at 10 μg/ml with cathepsin L at 1 μg/ml in activation buffer (25 mM 2-(morpholin-4-yl)-ethanesulfonic acid (MES), pH 6.0, containing 5 mM dithiothreitol (DTT)) for 15 min at 37° C. Cathepsin L activity was then stopped by the addition of the cysteine protease inhibitor E-64 (N-(trans-epoxysuccinyl)-L-leucine-4-guanidinobutylamide; Sigma-Aldrich, # E3132; dissolved in activation buffer/DMSO) to a final concentration of 10 μM.
The activated cathepsin A was diluted in assay buffer (25 mM MES, pH 5.5, containing 5 mM DTT) and mixed with the test compound (dissolved in assay buffer containing (v/v) 3% DMSO) or, in the control experiments, with the vehicle in a multiple assay plate. After incubation for 15 min at room temperature, as substrate then bradykinin carrying an N-terminal ®Bodipy FL (4,4-difluoro-5,7-dimethyl-4-bora-3a,4a-diaza-s-indacene-3-propionyl) label (JPT Peptide Technologies GmbH; dissolved in assay buffer) was added to the mixture. The final concentration of cathepsin A was 833 ng/ml and the final concentration of labeled bradykinin 2 μM. After incubation for 15 min at room temperature the reaction was stopped by the addition of stop buffer (130 mM 2-(4-(2-hydroxy-ethyl)-piperazin-1-yl)-ethanesulfonic acid, pH 7.4, containing (v/v) 0.013% ®Triton X-100, 0.13% Coating Reagent 3 (Caliper Life Sciences), 6.5% DMSO and 20 μM ebelactone B (Sigma, # E0886)).
Uncleaved substrate and product were then separated by a microfluidic capillary electrophoresis on a LabChip® 3000 Drug Discovery System (12-Sipper-Chip; Caliper Life Sciences) and quantified by determination of the respective peak areas. Substrate turnover was calculated by dividing product peak area by the sum of substrate and product peak areas, and the enzyme activity and the inhibitory effect of the test compound thus quantified. From the percentage of inhibition of cathepsin A activity observed with the test compound at several concentrations, the inhibitory concentration IC50, i.e. the concentration which effects 50% inhibition of enzyme activity was, calculated.
Regarding `O=C(O)C[C@H](NC(=O)c1csc(-c2cccc(Cl)c2)n1)c1cccc(Cl)c1` [Example 44, (S)-3-(3-Chloro-phenyl)-3-{[2-(3-chloro-phenyl)-thiazole-4-carbonyl]-amino}-propionic acid], the 50% inhibitory concentration (IC50) is 2980 nM.

For `O=C(O)C[C@H](NC(=O)c1csc(-c2ccccc2F)n1)c1ccccc1F` [Example 36, (S)-3-(2-Fluoro-phenyl)-3-{[2-(2-fluoro-phenyl)-thiazole-4-carbonyl]-amino}-propionic acid], the IC50 came to 659 nM.

As to `O=C(O)CC(Cc1ccccc1)NC(=O)c1csc(-c2ccccc2)n1` (stereo not drawn) [Example 134, 4-Phenyl-3-[(2-phenyl-thiazole-4-carbonyl)-amino]-butyric acid], the IC50 was 3420 nM.

Turning to `Cc1ccccc1-c1nc(C(=O)NC(CC(=O)O)Cc2ccccc2)cs1` (stereo not drawn) [Example 133, 4-Phenyl-3-[(2-o-tolyl-thiazole-4-carbonyl)-amino]-butyric acid], the IC50 turned out to be 3370 nM.

As for `O=C(O)CC(NC(=O)c1nc(-c2ccccc2)cs1)c1ccccc1Cl` (stereo not drawn) [Example 68, 3-(2-Chloro-phenyl)-3-[(4-phenyl-thiazole-2-carbonyl)-amino]-propionic acid], the IC50 worked out at 455 nM.

On to `O=C(N[C@@H](Cc1ccc(Cl)cc1)C(=O)O)c1csc(-c2ccccc2)n1` [Example 58, (S)-3-(4-Chloro-phenyl)-2-[(2-phenyl-thiazole-4-carbonyl)-amino]-propionic acid], for which the IC50 came out at 22000 nM.

Regarding `COc1cccc([C@H](CC(=O)O)NC(=O)c2csc(-c3ccc(Cl)cc3)n2)c1OC` [Example 101, (S)-3-{[2-(4-Chloro-phenyl)-thiazole-4-carbonyl]-amino}-3-(2,3-dimethoxy-phenyl)-propionic acid], the IC50 came out at 1120 nM.

Regarding `O=C(O)C[C@H](NC(=O)c1csc(-c2ccccc2Cl)n1)c1ccccc1` [Example 83, (S)-3-{[2-(2-Chloro-phenyl)-thiazole-4-carbonyl]-amino}-3-phenyl-propionic acid], the IC50 amounted to 186 nM.

On to `O=C(O)C[C@H](NC(=O)c1csc(-c2ccccc2F)n1)c1cccc(Cl)c1Cl` [Example 15, (S)-3-(2,3-Dichloro-phenyl)-3-{[2-(2-fluoro-phenyl)-thiazole-4-carbonyl]-amino}-propionic acid], for which the IC50 turned out to be 209 nM.

As to `O=C(O)C[C@H](NC(=O)c1csc(-c2ccccc2Cl)n1)c1ccc(F)cc1` [Example 80, (S)-3-{[2-(2-Chloro-phenyl)-thiazole-4-carbonyl]-amino}-3-(4-fluoro-phenyl)-propionic acid], the IC50 was found to be 148 nM.

Turning to `O=C(O)C[C@H](NC(=O)c1csc(-c2cccc(Cl)c2)n1)c1cccc(F)c1` [Example 94, (S)-3-{[2-(3-Chloro-phenyl)-thiazole-4-carbonyl]-amino}-3-(3-fluoro-phenyl)-propionic acid], the IC50 was 3730 nM.

Regarding `O=C(O)C[C@H](NC(=O)c1nc(-c2ccccc2)cs1)c1ccc(Cl)cc1Cl` [Example 96, (S)-3-(2,4-Dichloro-phenyl)-3-[(4-phenyl-thiazole-2-carbonyl)-amino]-propionic acid], the IC50 worked out at 254 nM.

As to `Cc1ccc(-c2nc(C)c(C(=O)N[C@@H](CC(=O)O)c3ccccc3C)s2)cc1` [Example 70, (S)-3-[(4-Methyl-2-p-tolyl-thiazole-5-carbonyl)-amino]-3-o-tolyl-propionic acid], the IC50 was over 10000 nM.

Take `Cc1ccccc1[C@H](CC(=O)O)NC(=O)c1csc(-c2ccc(C(F)(F)F)cc2)n1` [Example 112, (S)-3-o-Tolyl-3-{[2-(4-trifluoromethyl-phenyl)-thiazole-4-carbonyl]-amino}-propionic acid]: the IC50 turned out to be 1310 nM.

For `O=C(O)C[C@H](NC(=O)c1csc(-c2ccc(C(F)(F)F)cc2)n1)c1ccccc1Cl` [Example 33, (S)-3-(2-Chloro-phenyl)-3-{[2-(4-trifluoromethyl-phenyl)-thiazole-4-carbonyl]-amino}-propionic acid], the IC50 amounted to 3110 nM.

In the case of `O=C(O)C[C@H](NC(=O)c1csc(-c2cccc(Cl)c2Cl)n1)c1cccc(Cl)c1Cl` [Example 14, (S)-3-(2,3-Dichloro-phenyl)-3-{[2-(2,3-dichloro-phenyl)-thiazole-4-carbonyl]-amino}-propionic acid], the IC50 was determined as 159 nM.

On to `O=C(O)C[C@H](NC(=O)c1nc(-c2ccccc2)cs1)c1ccc(C(F)(F)F)cc1` [Example 97, (S)-3-[(4-Phenyl-thiazole-2-carbonyl)-amino]-3-(4-trifluoromethyl-phenyl)-propionic acid], for which the IC50 came to 406 nM.

With `O=C(O)C[C@H](NC(=O)c1csc(-c2ccccc2)n1)c1ccccc1Cl` [Example 27, (S)-3-(2-Chloro-phenyl)-3-[(2-phenyl-thiazole-4-carbonyl)-amino]-propionic acid], the IC50 turned out to be 217 nM.

Turning to `O=C(O)C[C@H](NC(=O)c1csc(-c2ccccc2F)n1)c1ccc(Cl)cc1Cl` [Example 24, (S)-3-(2,4-Dichloro-phenyl)-3-{[2-(2-fluoro-phenyl)-thiazole-4-carbonyl]-amino}-propionic acid], the IC50 is 1070 nM.

As for `Cc1ccccc1-c1nc(C(=O)N[C@@H](Cc2ccc(Cl)cc2)C(=O)O)cs1` [Example 72, (S)-3-(4-Chloro-phenyl)-2-[(2-o-tolyl-thiazole-4-carbonyl)-amino]-propionic acid], the IC50 is 16600 nM.

For `Cc1ccccc1-c1nc(C(=O)N[C@@H](CC(=O)O)c2cccc(Cl)c2Cl)cs1` [Example 12, (S)-3-(2,3-Dichloro-phenyl)-3-[(2-o-tolyl-thiazole-4-carbonyl)-amino]-propionic acid], the IC50 is 85 nM.

`O=C(O)C[C@H](NC(=O)c1csc(-c2cccc(Cl)c2)n1)c1ccccc1C(F)(F)F` [Example 93, (S)-3-{[2-(3-Chloro-phenyl)-thiazole-4-carbonyl]-amino}-3-(2-trifluoromethyl-phenyl)-propionic acid]: the IC50 came to 10400 nM.

With `O=C(O)CC(NC(=O)c1csc(-c2ccc(C(F)(F)F)cc2)n1)C1CCCCC1` (stereo not drawn) [Example 132, 3-Cyclohexyl-3-{[2-(4-trifluoromethyl-phenyl)-thiazole-4-carbonyl]-amino}-propionic acid], the IC50 came to 11200 nM.

On to `O=C(O)C[C@H](NC(=O)c1csc(-c2ccc(Cl)cc2)n1)c1ccccc1Cl` [Example 32, (S)-3-(2-Chloro-phenyl)-3-{[2-(4-chloro-phenyl)-thiazole-4-carbonyl]-amino}-propionic acid], for which the IC50 was determined as 1400 nM.

Take `Cc1ccccc1[C@H](CC(=O)O)NC(=O)c1csc(-c2ccccc2Cl)n1` [Example 82, (S)-3-{[2-(2-Chloro-phenyl)-thiazole-4-carbonyl]-amino}-3-o-tolyl-propionic acid]: the IC50 is 30 nM.

On to `Cc1ccccc1-c1nc(C(=O)NC(CC(=O)O)C2CCCCC2)cs1` (stereo not drawn) [Example 128, 3-Cyclohexyl-3-[(2-o-tolyl-thiazole-4-carbonyl)-amino]-propionic acid], for which the IC50 was 810 nM.

In the case of `COc1ccc([C@H](CC(=O)O)NC(=O)c2csc(-c3ccc(Cl)cc3)n2)cc1` [Example 108, (S)-3-{[2-(4-Chloro-phenyl)-thiazole-4-carbonyl]-amino}-3-(4-methoxy-phenyl)-propionic acid], the IC50 turned out to be 3400 nM.
